Measured values: ChEMBL document CHEMBL4825738, “EGFR-targeted prodrug activation using bioorthogonal alkene-azide click-and-release chemistry” (Bioorg Med Chem, 2021)

Experiments:
[1] = system: B16-F10-luc2; experiment: Cytotoxicity against mouse B16-F10-Luc2 cells expressing human EGFR measured after 72 hrs in presence of AB-TCO2 conjugates by resazurin assay; type: functional, cell-based; details: B16-F10-luc2, 72 h
[2] = system: B16-F10-luc2; experiment: Anti tumour activity in C57BL/6 mouse implanted with B16-F10-Luc2 murine cells assessed as median survival time at 5.9 mg/kg, iv administered for 6 hrs followed by antibody conjugate treatment; type: functional
[3] = system: B16-F10-luc2; experiment: Cytotoxicity against mouse B16-F10-Luc2 cells expressing human EGFR measured after 72 hrs in presence of AB-TCO4 conjugates by resazurin assay; type: functional, cell-based; details: B16-F10-luc2, 72 h
[4] = system: B16-F10-luc2; experiment: Cytotoxicity against mouse B16-F10-Luc2 cells measured after 72 hrs in presence of AB-TCO2 conjugate by resazurin assay; type: functional, cell-based; details: B16-F10-luc2, 72 h
[5] = system: B16-F10-luc2; experiment: Cytotoxicity against mouse B16-F10-Luc2 cells expressing human EGFR measured after 72 hrs in presence of AB-TCO3 conjugates by resazurin assay; type: functional, cell-based; details: B16-F10-luc2, 72 h
[6] = system: B16-F10-luc2; experiment: Cytotoxicity against mouse B16-F10-Luc2 cells expressing human EGFR measured after 72 hrs by resazurin assay; type: cell-based; details: B16-F10-luc2, 72 h
[7] = system: B16-F10-luc2; experiment: Cytotoxicity against mouse B16-F10-Luc2 cells measured after 72 hrs by resazurin assay; type: cell-based; details: B16-F10-luc2, 72 h
[8] = system: B16-F10-luc2; experiment: Cytotoxicity against mouse B16-F10-Luc2 cells in the measured after 72 hrs in presence of AB-TCO3 conjugate by resazurin assay; type: functional, cell-based; details: B16-F10-luc2, 72 h
[9] = system: B16-F10-luc2; experiment: Cytotoxicity against mouse B16-F10-Luc2 cells expressing EGFR measured after 72 hrs in presence of 3.3 uM cetuximab by resazurin assay; type: functional, cell-based; details: B16-F10-luc2, 72 h
[10] = system: B16-F10-luc2; experiment: Anti tumour activity in C57BL/6 mouse implanted with B16-F10-Luc2 murine cells assessed as median survival time at 4.5 mg/kg, ip administered for 24 hrs followed by antibody conjugate treatment; type: functional
[11] = system: B16-F10-luc2; experiment: Cytotoxicity against mouse B16-F10-Luc2 cells expressing EGFR measured after 72 hrs in absence of cetuximab by resazurin assay; type: functional, cell-based; details: B16-F10-luc2, 72 h

SMILES | IC50 [1] [nM] | MST [2] [days] | IC50 [3] [nM] | IC50 [4] [nM] | IC50 [5] [nM] | IC50 [6] [nM] | IC50 [7] [nM] | IC50 [8] [nM] | IC50 [9] [nM] | MST [10] [days] | IC50 [11] [nM]
COc1cccc2c1C(=O)c1c(O)c3c(c(O)c1C2=O)C[C@@](O)(C(=O)CO)C[C@@H]3O[C@H]1C[C@H](NC(=O)OCc2ccc(N=[N+]=[N-])cc2)[C@H](O)[C@H](C)O1 | 780 | 26 | 2090 | 5140 | 120 | 1680 | 4490 | 3440 | – | – | –
COc1cccc2c1C(=O)c1c(O)c3c(c(O)c1C2=O)C[C@@](O)(C(=O)CO)C[C@@H]3O[C@H]1C[C@H](N)[C@H](O)[C@H](C)O1 [DOXORUBICIN] | – | – | – | – | – | 40 | 110 | – | 90 | 39 | 40
